The results in this text go back to PubChem BioAssay (NCI).

Usually GI50 stands for the concentration giving 50% growth inhibition. Broadly, the TGI is the concentration giving total growth inhibition.

Test systems include K-562 leukemia; UACC-62 melanoma; CAKI-1 renal; CCRF-CEM leukemia; SF-295 CNS; HCT-116 colon; TK-10 renal; HOP-92 NSCLC; OVCAR-4 ovarian; A498 renal.
Experiment in all cases: DTP human tumour cell line panel, 48 h

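Grown in 96-well plates, cells were treated for 48 hours with each compound at five concentrations. Insufficient inhibition: endpoint recorded as highest concentration tested. Abbreviation: GI50, concentration required for 50% inhibition of growth. The concentration for full growth arrest is given as TGI.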

For the compound `NCCN.NCCN.O=C[O-].O=C[O-].[Co+3].[O-][Cl+3]([O-])([O-])[O-]`, the GI50 with K-562 leukemia, in the assay on UACC-62 melanoma, in the assay on CAKI-1 renal, in the assay with CCRF-CEM leukemia, in the assay with SF-295 CNS and in the assay on HCT-116 colon was greater than 100 µM each time. Besides, the GI50 with TK-10 renal, in the assay on HOP-92 NSCLC, in the assay on OVCAR-4 ovarian and in the assay with A498 renal was greater than 100 µM in each case. Moreover, the TGI in the assay with K-562 leukemia, in the assay with UACC-62 melanoma, in the assay on CAKI-1 renal, in the assay on CCRF-CEM leukemia, in the assay on SF-295 CNS and with HCT-116 colon was greater than 100 µM throughout. Also, the TGI with TK-10 renal, in the assay on HOP-92 NSCLC, in the assay with OVCAR-4 ovarian and in the assay with A498 renal was greater than 100 µM in each case.
In the case of `CCN1C2=NCCN2S(=O)(=O)c2ccccc21`, the TGI in the assay on K-562 leukemia, in the assay on UACC-62 melanoma, in the assay on CAKI-1 renal, in the assay with CCRF-CEM leukemia, in the assay with SF-295 CNS and in the assay on HCT-116 colon was greater than 100 µM each time. Moreover, the total growth inhibition concentration (TGI) with TK-10 renal, in the assay on HOP-92 NSCLC, with OVCAR-4 ovarian and in the assay with A498 renal was greater than 100 µM throughout.
Turning to `O=C(Nc1ccccc1O)c1ccc(CNc2ccnc(C(F)(F)F)c2)cc1`, the GI50 with K-562 leukemia was 2.39 µM; with UACC-62 melanoma, 1.3 µM; with CAKI-1 renal, 1.74 µM; in the assay with CCRF-CEM leukemia it was 0.354 µM; in the assay with SF-295 CNS it was 3.16 µM; in the assay on HCT-116 colon it was 3.96 µM. Besides, the GI50 was 11.3 µM in the assay on TK-10 renal, 0.699 µM in the assay on HOP-92 NSCLC, 17.2 µM in the assay on OVCAR-4 ovarian and 2.84 µM in the assay on A498 renal. The TGI in the assay with K-562 leukemia was greater than 100 µM; in the assay with UACC-62 melanoma, 17.6 µM; in the assay with CAKI-1 renal it was 14.3 µM; with CCRF-CEM leukemia, 12.8 µM; in the assay on SF-295 CNS, 17.1 µM; in the assay with HCT-116 colon, 34.9 µM. Moreover, the TGI was 36 µM with TK-10 renal, 15.4 µM in the assay on HOP-92 NSCLC, greater than 100 µM in the assay with OVCAR-4 ovarian and 12.2 µM in the assay with A498 renal.
Take `COc1cc2c3c(n(CCCNCCCNCCCNCCCN)c(=O)c2cc1OC)-c1cc2c(cc1C3=O)OCO2`: the GI50 in the assay with K-562 leukemia was 2.05 µM; with UACC-62 melanoma it was 1.68 µM; with CAKI-1 renal, 1.78 µM; with CCRF-CEM leukemia it was 0.301 µM; in the assay with SF-295 CNS, 1.38 µM; in the assay with HCT-116 colon it was 1.5 µM. Besides, the GI50 was 2.8 µM with TK-10 renal, 2.74 µM in the assay on HOP-92 NSCLC, 4.34 µM in the assay on OVCAR-4 ovarian and 3.14 µM with A498 renal. Moreover, the TGI in the assay on K-562 leukemia was 5.22 µM; in the assay with UACC-62 melanoma, 6.19 µM; with CAKI-1 renal, 3.8 µM; in the assay with CCRF-CEM leukemia it was 2.16 µM; with SF-295 CNS it was 3.97 µM; with HCT-116 colon it was 3.13 µM. In addition, the TGI stood at 5.8 µM with TK-10 renal, 9.64 µM in the assay on HOP-92 NSCLC, 58 µM in the assay with OVCAR-4 ovarian and 12.1 µM in the assay on A498 renal.
As to `Clc1ccc(C2=Nn3c(nnc3-c3cc(Cl)cc(Cl)c3Cl)SC2)cc1`, the GI50 was 3.4 µM with K-562 leukemia; 21.6 µM with UACC-62 melanoma; 14.6 µM in the assay with CAKI-1 renal; 10.7 µM in the assay on CCRF-CEM leukemia; 11 µM with SF-295 CNS; 22.1 µM with HCT-116 colon. Further, the GI50 in the assay on TK-10 renal was 15.9 µM; with HOP-92 NSCLC it was 19.6 µM; in the assay with OVCAR-4 ovarian, greater than 100 µM; in the assay with A498 renal, 31.1 µM. For the same compound, the TGI is 35.1 µM in the assay with K-562 leukemia; 70.9 µM with UACC-62 melanoma; 31.3 µM with CAKI-1 renal; 26 µM in the assay on CCRF-CEM leukemia; 29.3 µM in the assay on SF-295 CNS; greater than 100 µM in the assay with HCT-116 colon. In addition, the TGI in the assay with TK-10 renal was 35.9 µM; in the assay on HOP-92 NSCLC, 65 µM; in the assay with OVCAR-4 ovarian, greater than 100 µM; in the assay with A498 renal it was greater than 100 µM.
For `N#CSc1c[nH]c2ccc(/C=C/C(=O)/C=C(/C=C/c3ccc4[nH]cc(SC#N)c4c3)OB(F)F)cc12`, the GI50 was 0.281 µM in the assay with K-562 leukemia; 1.2 µM in the assay on UACC-62 melanoma; 0.531 µM with CAKI-1 renal; 0.267 µM in the assay on CCRF-CEM leukemia; 3.47 µM with SF-295 CNS; 0.0887 µM with HCT-116 colon. Moreover, the GI50 was 0.698 µM in the assay with TK-10 renal, 0.321 µM in the assay on HOP-92 NSCLC, 0.344 µM in the assay with OVCAR-4 ovarian and 3.24 µM in the assay on A498 renal. Moreover, the TGI is greater than 100 µM in the assay on K-562 leukemia; 2.85 µM in the assay on UACC-62 melanoma; 4.05 µM with CAKI-1 renal; 4.4 µM in the assay with CCRF-CEM leukemia; 14.4 µM with SF-295 CNS; 0.375 µM in the assay on HCT-116 colon. The TGI stood at 14.8 µM in the assay on TK-10 renal, 1.5 µM in the assay on HOP-92 NSCLC, 3.11 µM with OVCAR-4 ovarian and 12.3 µM with A498 renal.
On to `CN(C)C/C=C/C(=O)Nc1cc2c(Nc3ccc(F)c(Cl)c3F)ncnc2cc1OCCOC(F)F`, for which the GI50 with K-562 leukemia was 0.519 µM; with UACC-62 melanoma it was 1.45 µM; in the assay on CAKI-1 renal it was less than 0.01 µM; in the assay with CCRF-CEM leukemia it was 2.47 µM; in the assay with SF-295 CNS, 1.72 µM; in the assay with HCT-116 colon it was 0.625 µM. Besides, the GI50 with TK-10 renal was less than 0.01 µM; with HOP-92 NSCLC, 0.0585 µM; with OVCAR-4 ovarian, 1.18 µM; in the assay with A498 renal, 0.282 µM. The TGI with K-562 leukemia turned out to be 11.3 µM; with UACC-62 melanoma it was 4.46 µM; with CAKI-1 renal, 1.13 µM; with CCRF-CEM leukemia, 13.3 µM; in the assay on SF-295 CNS, 9.86 µM; in the assay on HCT-116 colon, 2.98 µM. In addition, the TGI with TK-10 renal is 0.738 µM; in the assay with HOP-92 NSCLC, 1.13 µM; in the assay with OVCAR-4 ovarian it was 10.7 µM; in the assay on A498 renal, 1.91 µM.
`COc1ccc(-c2nc(C(=O)c3ccccc3)n(CC(=O)c3ccccc3)c2-c2ccc(OC)cc2)cc1`: the GI50 in the assay on K-562 leukemia, with UACC-62 melanoma, in the assay with CAKI-1 renal, in the assay with CCRF-CEM leukemia, with SF-295 CNS and in the assay on HCT-116 colon was greater than 100 µM throughout. The GI50 was greater than 100 µM in the assay on TK-10 renal, 12.4 µM in the assay on HOP-92 NSCLC, greater than 100 µM in the assay on OVCAR-4 ovarian and greater than 100 µM in the assay with A498 renal. Further, the TGI in the assay on K-562 leukemia, with UACC-62 melanoma, in the assay with CAKI-1 renal, with CCRF-CEM leukemia, in the assay with SF-295 CNS and in the assay on HCT-116 colon was greater than 100 µM throughout. The TGI with TK-10 renal, in the assay on HOP-92 NSCLC, in the assay with OVCAR-4 ovarian and with A498 renal was greater than 100 µM in each case.
